Literature values in PMC8426237, “A first-in-human phase I study of TAS0728, an oral covalent binding inhibitor of HER2, in patients with advanced solid tumors with HER2 or HER3 aberrations” (Investigational New Drugs, 2021).
Read-outs that look alike come from different tables or passages of the source.

Conditions: cited from earlier work; for Diarrhea in patients: approved oral HER2-inhibitory compounds; for Diarrhea toxicity grade: HER2-positive breast cancer

In the case of Cc1cc(Nc2ncnc3ccc(NC4=NC(C)(C)CO4)cc23)ccc1Oc1ccn2ncnc2c1 [tucatinib], the Diarrhea in patients is listed as “associated with severe diarrhea”.
In the case of CCOc1cc2ncc(C#N)c(Nc3ccc(OCc4ccccn4)c(Cl)c3)c2cc1NC(=O)/C=C/CN(C)C [neratinib], the Diarrhea toxicity grade (ExteNET trial) is listed as “Grade 3 or 4”, the Diarrhea in patients is listed as “associated with severe diarrhea” and the “Response of patients with tumors harboring HER2 G778_P780dup” value is listed as “respond to treatment”.
For CN(C)C/C=C/C(=O)Nc1cc2c(Nc3ccc(F)c(Cl)c3)ncnc2cc1O[C@H]1CCOC1 [afatinib], the Diarrhea toxicity grade (LUX-BREAST-1/−3 studies) is listed as “Grade 3 or 4” and the Diarrhea in patients is listed as “associated with severe diarrhea”.
For CS(=O)(=O)CCNCc1ccc(-c2ccc3ncnc(Nc4ccc(OCc5cccc(F)c5)c(Cl)c4)c3c2)o1 [lapatinib], the Diarrhea in patients is listed as “associated with severe diarrhea”.
